Data reported in patent publication US20220281825A1 (priority 2016, published 2022).

Legend:
LASV-p = assay: organism not typed; assay type: cell-based, Lassa (LASV); conditions: Vero, 24 h, read-out: LASV-p EC50 (nM)
MACV-p = assay: organism not typed; assay type: cell-based, Machupo (MACV); conditions: Vero, 24 h, read-out: MACV-p EC50 (nM)
JUNV-p = assay: organism not typed; assay type: cell-based, Junin (JUNV); conditions: Vero, 24 h, read-out: JUNV-p EC50 (nM)
TCRV-p = assay: organism not typed; assay type: cell-based; conditions: Vero, 24 h, read-out: TCRV-p EC50 (nM)
in vitro = conditions: African green monkey

Row | Structure (SMILES) | EC50 (LASV-p) [nM] | EC50 (MACV-p) [nM] | EC50 (JUNV-p) [nM] | EC50 (TCRV-p) [nM] | CC50 (in vitro) [nM]
1 | CC(C)Oc1ccc(-c2ccc3ncc(-c4ccc(C(F)F)cc4)n3c2)cc1 [Example C36, 3-[4-(difluoromethyl)phenyl]-6-[4-(propan-2-yloxy)phenyl]imidazo[1,2-a]pyridine] | 8.18 | > 25 | 23.2 | > 25 | –
2 | CC(C)Oc1ccc(-n2cnc3cnc(-c4ccc(C(C)(C)O)cc4)cc32)cc1 [Example B5, 2-(4-{1-[4-(propan-2-yloxy)phenyl]-1H-imidazo[4,5-c]pyridin-6-yl}phenyl)propan-2-ol] | > 25 | > 25 | 13.4 | > 25 | –
3 | CC(C)Oc1ccc(-c2cnc3ccc(-c4ccc(C5(O)CNC5)cc4)cn23)cc1 [Example C29, 3-(4-{3-[4-(propan-2-yloxy)phenyl]imidazo[1,2-a]pyridin-6-yl}phenyl)azetidin-3-ol] | > 25 | > 25 | > 25 | > 25 | –
4 | COc1ccc(-n2cnc3c(-c4ccc(C(C)C)cc4)cccc32)cc1 [Example A19, 1-(4-methoxyphenyl)-4-[4-(propan-2-yl)phenyl]-1H-1,3-benzodiazole] | > 100 | – | – | – | –
5 | CC(=O)c1ccc(-c2ccc3cnn(-c4ccc(OC(C)C)cc4)c3c2)cc1 [Example D3, 1-(4-{1-[4-(propan-2-yloxy)phenyl]-1H-indazol-6-yl}phenyl)ethan-1-one] | 7.04 | 15.5 | 20.2 | > 25 | 15900
6 | CCOC(=O)c1nc2ccc(-c3ccc(OC(C)C)cc3)cn2c1-c1ccc(OC(C)C)cc1 [Example D20, ethyl 3,6-bis[4-(propan-2-yloxy)phenyl]imidazo[1,2-a]pyridine-2-carboxylate] | > 25 | > 25 | > 25 | > 25 | –
7 | CC(C)Oc1ccc(-c2ccc3ncc(-c4ccc(OCCN5CCOCC5)cc4)n3c2)cc1 [Example C43, 4-[2-(4-{6-[4-(propan-2-yloxy)phenyl]imidazo[1,2-a]pyridin-3-yl}phenoxy)ethyl]morpholine] | > 25 | > 25 | > 25 | > 25 | –
8 | CC(C)Oc1ccc(-c2ccc3nc(C(=O)O)c(-c4ccc(OC(C)C)cc4)n3c2)cc1 [Example D21, 3,6-bis[4-(propan-2-yloxy)phenyl]imidazo[1,2-a]pyridine-2-carboxylic acid] | > 25 | > 25 | > 25 | > 25 | –
9 | CC(C)Oc1ccc(-c2ccc3nc(C#N)c(-c4ccc(OC(C)C)cc4)n3c2)cc1 [Example D23, 3,6-bis[4-(propan-2-yloxy)phenyl]imidazo[1,2-a]pyridine-2-carbonitrile] | 27.4 | > 25 | 3.78 | > 25 | > 100000
10 | COc1ccc(-n2cnc3ccc(-c4ccccc4OC)cc32)cc1 [Example A5, 6-(2-methoxyphenyl)-1-(4-methoxyphenyl)-1H-1,3-benzodiazole] | > 25 | > 25 | > 25 | > 25 | < 300
11 | CC(C)Oc1ccc(-n2cnc3cnc(-c4ccc5[nH]ccc5c4)nc32)cc1 [Example B11, 2-(1H-indol-5-yl)-9-[4-(propan-2-yloxy)phenyl]-9H-purine] | 6.4 | 25 | 25 | > 25 | 24200
12 | CC(C)Oc1ccc(-c2cnc3ccc(-c4ccc(C(N)=O)cc4)cn23)cc1 [Example C16, 4-{3-[4-(propan-2-yloxy)phenyl]imidazo[1,2-a]pyridin-6-yl}benzamide] | > 25 | > 25 | > 25 | > 25 | –
13 | CC(C)Oc1ccc(-c2ccc3occ(-c4ccc(OC(C)C)cc4)c3c2)cc1 [Example D8, 3,5-bis[4-(propan-2-yloxy)phenyl]-1-benzofuran] | > 25 | > 25 | > 25 | > 25 | –
14 | COc1ccc(-n2cnc3ccc(-c4ccc(N5CCCCC5)cc4)cc32)cc1 [Example A15, 1-(4-methoxyphenyl)-6-[4-(piperidin-1-yl)phenyl]-1H-1,3-benzodiazole] | 14.7 | 24.9 | 2.23 | 29.6 | 12900
15 | CC(C)Oc1ccc(-n2cnc3cnc(-c4ccc5[nH]ccc5c4)cc32)cc1 [Example B7, 5-{1-[4-(propan-2-yloxy)phenyl]-1H-imidazo[4,5-c]pyridin-6-yl}-1H-indole] | 8.18 | 24.1 | 16.2 | > 25 | 13900
16 | COc1ccc(-n2cnc3ccc(Cc4ccc(C)cc4)cc32)cc1 [Example A9, 1-(4-methoxyphenyl)-6-[(4-methylphenyl)methyl]-1H-1,3-benzodiazole] | > 100 | – | – | – | –
17 | CC(C)Oc1ccc(-c2ccc3ncc(-c4ccc5c(c4)CCO5)n3c2)cc1 [Example C34, 3-(2,3-dihydro-1-benzofuran-5-yl)-6-[4-(propan-2-yloxy)phenyl]imidazo[1,2-a]pyridine] | 4.73 | 25.1 | 3.68 | 16.5 | –

Row | Structure (SMILES) | EC50 (LASV-p) [nM] | EC50 (MACV-p) [nM] | EC50 (JUNV-p) [nM] | EC50 (TCRV-p) [nM] | CC50 (in vitro) [nM]
18 | COc1ccccc1-n1cnc2ccc(-c3ccc(C(C)(C)O)cc3)cc21 [Example A22, 2-{4-[1-(2-methoxyphenyl)-1H-1,3-benzodiazol-6-yl]phenyl}propan-2-ol] | > 25 | > 25 | > 25 | > 25 | –
19 | CC(C)Oc1ccc(-c2ccc3cnc(-c4ccc(OC(C)C)cc4)n3c2)cc1 [Example D17, 3,6-bis[4-(propan-2-yloxy)phenyl]imidazo[1,5-a]pyridine] | > 25 | > 25 | > 25 | > 25 | –
20 | CC(=O)c1ccc(-c2cnc3cnc(-c4ccc(OC(C)C)cc4)cn23)cc1 [Example D14, 1-(4-{6-[4-(propan-2-yloxy)phenyl]imidazo[1,2-a]pyrazin-3-yl}phenyl)ethan-1-one] | 6.77 | 25 | 13.5 | 20.2 | –
21 | CC(C)Oc1ccc(-c2cnc3ccc(-c4ccc(OCCN5CCOCC5)cc4)cn23)cc1 [Example C25, 4-[2-(4-{3-[4-(propan-2-yloxy)phenyl]imidazo[1,2-a]pyridin-6-yl}phenoxy)ethyl]morpholine] | > 25 | > 25 | ≥ 25 | > 25 | –
22 | c1cc2cc(-c3ccc4ncn(-c5ccc6[nH]ccc6c5)c4c3)ccc2[nH]1 [Example A29, 1,6-bis(1H-indol-5-yl)-1H-1,3-benzodiazole] | 0.53 | 11.1 | 6.96 | 15.2 | –
23 | CC(C)Oc1ccc(-c2ccc3cnn(-c4ccc(OC(C)C)cc4)c3c2)cc1 [Example D1, 1,6-bis[4-(propan-2-yloxy)phenyl]-1H-indazole] | > 25 | > 25 | 14 | > 25 | –
24 | CC(=O)c1ccc(-c2ccc3ncn(-c4ccc5[nH]ccc5c4)c3c2)cc1 [Example A28, 1-{4-[1-(1H-indol-5-yl)-1H-1,3-benzodiazol-6-yl]phenyl}ethan-1-one] | 11 | > 25 | 7.29 | > 25 | –
25 | CC(C)Oc1ccc(-c2ccc3ncc(-c4ccc(C(=O)O)cc4)n3c2)cc1 [Example C45, 4-{6-[4-(propan-2-yloxy)phenyl]imidazo[1,2-a]pyridin-3-yl}benzoic acid] | > 25 | > 25 | > 25 | > 25 | –
26 | CC(=O)c1ccc(-c2cc3c(cn2)ncn3-c2ccc(OC(C)C)cc2)cc1 [Example B8, 1-(4-{1-[4-(propan-2-yloxy)phenyl]-1H-imidazo[4,5-c]pyridin-6-yl}phenyl)ethan-1-one] | > 25 | > 25 | > 25 | > 25 | –
27 | CC(C)Oc1ccc(-c2coc3ccc(-c4ccc5[nH]ccc5c4)cc23)cc1 [Example D9, 5-{3-[4-(propan-2-yloxy)phenyl]-1-benzofuran-5-yl}-1H-indole] | > 25 | > 25 | > 25 | > 25 | –
28 | CC(C)Oc1ccc(-c2ccc3ccn(-c4ccc(OC(C)C)cc4)c3c2)cc1 [Example D4, 1,6-bis[4-(propan-2-yloxy)phenyl]-1H-indole] | > 25 | 16.9 | 8.1 | > 25 | –
29 | CC(C)Oc1ccc(-c2cnc3ccc(-c4ccc(OC(C)C)cc4F)cn23)cc1 [Example C23, 6-[2-fluoro-4-(propan-2-yloxy)phenyl]-3-[4-(propan-2-yloxy)phenyl]imidazo[1,2-a]pyridine] | > 25 | > 25 | > 25 | > 25 | –
30 | COc1ccc(-n2cnc3ccc(-c4ccc(S(C)(=O)=O)cc4)cc32)cc1 [Example A11, 6-(4-methanesulfonylphenyl)-1-(4-methoxyphenyl)-1H-1,3-benzodiazole] | > 25 | > 25 | > 25 | > 25 | –
31 | CC(C)Oc1ccc(-c2cnc3ccc(-c4ccc(N)nc4)cn23)cc1 [Example C14, 5-{3-[4-(propan-2-yloxy)phenyl]imidazo[1,2-a]pyridin-6-yl}pyridin-2-amine] | > 25 | > 25 | > 25 | > 25 | –
32 | COc1ccc(-n2cnc3c(-c4cccc(C(C)C)c4)cccc32)cc1 [Example A20, 1-(4-methoxyphenyl)-4-[3-(propan-2-yl)phenyl]-1H-1,3-benzodiazole] | > 100 | – | – | – | –
33 | COc1cccc(-n2cnc3ccc(-c4ccc(C(C)(C)O)cc4)cc32)c1 [Example A23, 2-{4-[1-(3-methoxyphenyl)-1H-1,3-benzodiazol-6-yl]phenyl}propan-2-ol] | > 25 | > 25 | > 25 | > 25 | –
